Reference: the NIST ThermoML archive (doi:10.1021/je049777o)

Test: xn = mol fraction of the nth substance listed
Settings: 101.3 kPa, Liquid

COC(=O)OC [dimethyl carbonate] + CCCCCC
Settings	mass density [kg/m3]	viscosity [mPa·s]
293.15 K, x1 = 0.0961	685.68	0.3032
293.15 K, x1 = 0.193	712.34	0.3094
293.15 K, x1 = 0.2909	741.99	0.3213
293.15 K, x1 = 0.3894	774.82	0.341
293.15 K, x1 = 0.489	811.38	0.3647
293.15 K, x1 = 0.5893	851.98	0.3939
293.15 K, x1 = 0.6906	897.34	0.427
293.15 K, x1 = 0.7928	948.58	0.4715
293.15 K, x1 = 0.896	1006.55	0.542
293.15 K, x1 = 1	1069.54	0.6173
298.15 K, x1 = 0.0961	680.92	0.2901
298.15 K, x1 = 0.193	707.38	0.294
298.15 K, x1 = 0.2909	736.8	0.306
298.15 K, x1 = 0.3894	769.42	0.3232
298.15 K, x1 = 0.489	805.8	0.3449
298.15 K, x1 = 0.5893	846.19	0.3709
298.15 K, x1 = 0.6906	891.45	0.4024
298.15 K, x1 = 0.7928	942.39	0.4472
298.15 K, x1 = 0.896	1000.17	0.5031
298.15 K, x1 = 1	1062.95	0.5734
303.15 K, x1 = 0.0961	676.14	0.279
303.15 K, x1 = 0.193	702.37	0.2817
303.15 K, x1 = 0.2909	731.62	0.2923
303.15 K, x1 = 0.3894	764.04	0.3061
303.15 K, x1 = 0.489	800.21	0.3252
303.15 K, x1 = 0.5893	840.41	0.3502
303.15 K, x1 = 0.6906	885.48	0.3808
303.15 K, x1 = 0.7928	936.19	0.4221
303.15 K, x1 = 0.896	993.78	0.4748
303.15 K, x1 = 1	1056.35	0.5403
313.15 K, x1 = 0.0961	666.41	0.2513
313.15 K, x1 = 0.193	692.21	0.2555
313.15 K, x1 = 0.2909	721.04	0.2645
313.15 K, x1 = 0.3894	753.05	0.277
313.15 K, x1 = 0.489	788.82	0.2938
313.15 K, x1 = 0.5893	828.62	0.3163
313.15 K, x1 = 0.6906	873.34	0.3417
313.15 K, x1 = 0.7928	923.65	0.3763
313.15 K, x1 = 0.896	980.84	0.4229
313.15 K, x1 = 1	1043.01	0.4807
323.15 K, x1 = 0.0961	656.55	0.2333
323.15 K, x1 = 0.193	681.9	0.2344
323.15 K, x1 = 0.2909	710.27	0.2423
323.15 K, x1 = 0.3894	741.92	0.2536
323.15 K, x1 = 0.489	777.28	0.2681
323.15 K, x1 = 0.5893	816.69	0.288
323.15 K, x1 = 0.6906	861.07	0.3101
323.15 K, x1 = 0.7928	910.98	0.3404
323.15 K, x1 = 0.896	967.8	0.3781
323.15 K, x1 = 1	1029.59	0.427
333.15 K, x1 = 0.0961	646.44	0.213
333.15 K, x1 = 0.193	671.36	0.2167
333.15 K, x1 = 0.2909	699.25	0.2239
333.15 K, x1 = 0.3894	730.55	0.234
333.15 K, x1 = 0.489	765.5	0.2466
333.15 K, x1 = 0.5893	804.52	0.2639
333.15 K, x1 = 0.6906	848.53	0.2842
333.15 K, x1 = 0.7928	898.13	0.3117
333.15 K, x1 = 0.896	954.54	0.3447
333.15 K, x1 = 1	1016	0.3893
